Experimental data: patent US20050215646A1, “Methods for treating multiple sclerosis and pharmaceutical compositions therefor” (Renovis, Inc., priority 2004, published 2005)

Assays:
[1] = test system: rat EAE model; assay: Lewis rat model of experimental autoimmune encephalomyelitis (EAE); format: in vivo; details: 10 mg/kg/day oral gavage
Description: 7- to 10-week female Lewis rats (The Jackson Laboratory, Bar Harbor, Me.) were used since they are susceptible to EAE, and since MS occurs at a 2:1 ratio between females and males respectively. Rats were immunized either at the base of the tail (or in one hind footpad) with myelin antigen myelin basic peptide, MBP 85-99. Peptide antigens were mixed with complete Freund's adjuvant including killed mycobacterium tuberculosis at a doses of 4 mg/ml. 200 micrograms of antigen mixed with the 0.1 ml emulsion of adjuvant were used. The myelin antigens were dissolved in phosphate buffered saline.
Nine rats were used in each of the following groups: EAE control, vehicle control, compound 15 (prevention), compound 15 (pro-treatment), phenyl-N-butyl-nitrone (prevention) and phenyl-N-butyl-nitrone (pro-treatment). For the treatment model, fifteen rats were used in each of three groups: EAE control, vehicle control, compound 15 (treatment). Drugs were administered via oral gavage feeding. Rats were dosed daily after the first dose until recovery from acute disease (typically 20 days after EAE induction). Compound 15 was dosed at 10 mg/kg/day and phenyl-N-butyl-nitrone was dosed at 100 mg/kg/day. In the prevention model, first dose of the drugs was administered 7 days prior to EAE induction. In the pro-treatment model, first dose was administered 4 days after EAE induction. In the treatment model, first dose was administered at the peak of the disease after animals were randomized into equal groups.
All rats were followed daily for clinical signs and weighed every four days. Longer water tubes were used to allow mice to drink when they develop paralysis, and chow was put on the floor of the cage to facilitate nourishment if the rats were paralyzed. Rats were scored as follows: 0, healthy; 1, tail weakness or paralysis; 2, paraparesis (incomplete paralysis of one or two hind limbs or plegia of one hind limb); 3, paraplegia extending to the thorax; 4, forelimb weakness, paralysis with hind limb paraparesis or paraplegia; 5, moribund or dead animal.

[2] = biological target: T1, CCR7 (Homo sapiens, UniProt P32248); assay: Migration of RBL-2H3 cells expressing CCR7; format: cell-based; details: RBL-2H3 cells expressing CCR7, 2 hours
T1 construct: Plasmid containing full-length human CCR7 cDNA; host or cells: RBL-2H3 (ATCC CRL-2256), transient transfection
T1 sequence (P32248 25-378): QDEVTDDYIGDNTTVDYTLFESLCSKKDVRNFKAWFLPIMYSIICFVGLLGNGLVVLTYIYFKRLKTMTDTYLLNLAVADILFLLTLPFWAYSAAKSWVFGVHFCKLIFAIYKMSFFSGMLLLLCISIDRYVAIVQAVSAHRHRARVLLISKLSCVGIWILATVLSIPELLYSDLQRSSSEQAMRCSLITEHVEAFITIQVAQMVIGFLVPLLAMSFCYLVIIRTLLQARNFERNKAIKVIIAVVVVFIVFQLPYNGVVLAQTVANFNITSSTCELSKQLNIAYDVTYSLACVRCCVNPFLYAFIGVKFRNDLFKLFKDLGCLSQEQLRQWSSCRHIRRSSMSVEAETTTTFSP
Description: (§1) RBL-2H3 cells were obtained from American Type Culture Collection (CRL-2256) and cultured in Minimum essential medium (MEM) with 10% heat-inactivated fetal bovine serum, 100 μg/ml penicillin/streptomycin. cDNA fragments encompassing chemokine receptor coding regions were obtained from cDNAs synthesized from HL-60 cells and/or human peripheral blood mononuclear cells by the polymerase chain reaction. Expression constructs of chemokine receptors were generated by cloning PCR fragments into expression vector pEF6/V5-TOPO (K9610-20, Invitrogen). Plasmid containing full-length human CXCR5 cDNA (human CXCR50TN00, pcDNA3.1+) was purchased from UMR cDNA Resource Center (Rolla, Mo.). Plasmid containing full-length human CCR7 cDNA (human CCR0700000, pcDNA3.1+) was purchased from UMR cDNA Resource Center (Rolla, Mo.). Transient transfections were carried out with Fugene 6 transfection reagent (1814443, Roche Applied Science) according to the manufacturer's instructions. […]
(§2) Following the migration assays, cells that had migrated to the bottom wells were quantitated using CyQuant reagents according to the manufacturer's instructions (Molecular Probes, Eugene, Oreg.). […] The fluorescence intensity (excitation wavelength at 485 nm and emission wavelength at 530 nm) was measured using Safire Spectrometer (Tecan; Research Triangle Park, N.C.).

[3] = biological target: CXCR4 (Homo sapiens, UniProt P61073); assay: Migration of RBL-2H3 cells expressing CXCR4; format: cell-based; design: cDNA fragments encompassing chemokine receptor coding regions; expressed in transfected cells; details: RBL-2H3 cells expressing CXCR4, 2 hours
Description: as §1, §2

Chain of CXCR4 (P61073 whole entry, the tested form may be a part): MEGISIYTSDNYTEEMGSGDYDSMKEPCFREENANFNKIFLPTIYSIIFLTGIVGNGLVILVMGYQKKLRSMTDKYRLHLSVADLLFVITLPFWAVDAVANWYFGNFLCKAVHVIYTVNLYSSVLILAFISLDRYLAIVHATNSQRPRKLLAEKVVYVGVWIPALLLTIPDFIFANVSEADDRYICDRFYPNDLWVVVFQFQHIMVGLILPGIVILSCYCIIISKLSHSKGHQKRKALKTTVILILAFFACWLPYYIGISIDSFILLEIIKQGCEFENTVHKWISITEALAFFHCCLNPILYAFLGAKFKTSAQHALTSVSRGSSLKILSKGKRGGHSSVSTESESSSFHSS

| SMILES | disease free rats, treatment model ([1]; first dose at the peak of EAE, compared to controls, FIG. 14) | clinical scores, pro-treatment model ([1]; rats, first dose 4 days after EAE induction, compared to control or PBN, FIG. 13) | change of clinical scores on day 15, pro-treatment model ([1]; rats, first dose 4 days after EAE induction, day 15) | clinical scores, prevention model ([1]; rats, first dose 7 days prior to EAE induction, compared to controls and to PBN (100 mg/kg/day), FIG. 12) | induction of cell migration [2] | induction of cell migration [3] |
| --- | --- | --- | --- | --- | --- | --- |
| COCOc1c(C(C)(C)C)cc(/C=[N+](\[O-])C(C)(C)C)cc1C(C)(C)C [Compound 15, α-(4-methoxymethoxy-3,5-di-tert-butyl-phenyl)-N-tert-butylnitrone] | significantly more rats treated with compound 15 were disease free | significantly better clinical scores | improved dramatically | significantly better clinical scores |  |  |
| CCC(C)c1cc(/C=[N+](\[O-])C(C)(C)C)cc(C(C)CC)c1O (stereo not drawn) [Compound 17] |  |  |  |  | induced migration | induced migration |
